Data published in patent US6358885B1, “Substituted phenylheterocyclic herbicides” (Mississippi State University, priority 1992, dated 2002).

What was measured:
[1] = system: wild buckwheat; experiment: Test C preemergence/postemergence greenhouse plant response rating 0 to 100; format: in vivo, Polygonum convolvulus; settings: POSTEMERGENCE; for Plant response rating, Wild buckwheat: 0 to 100 scale
How it was run: (§1)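 Compounds in non-phytotoxic solvent applied preemergence to sandy loam one day after planting, postemergence at the 1–4 leaf stage, or to ~2.5 cm floodwater over silt loam.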

[2] = system: wheat; experiment: Test B preemergence/postemergence greenhouse plant response rating 0 to 10; format: in vivo, Triticum aestivum; settings: 0 to 10 scale
How it was run: (§2)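 Planted seeds are treated preemergence with compound dissolved in a non-phytotoxic solvent, while postemergence applications go onto plants of two to eighteen cm. Plants stay in the greenhouse twelve to sixteen days and are then rated visually relative to controls.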

[3] = system: rice; experiment: as above; format: in vivo, Oryza sativa; settings: 0 to 10 scale
How it was run: as §2

[4] = system: crabgrass; experiment: as above; format: in vivo, Digitaria spp.; settings: 0 to 10 scale
How it was run: as §2

[5] = system: sorghum; experiment: as above; format: in vivo, Sorghum bicolor; settings: 0 to 10 scale
How it was run: as §2

[6] = system: wheat; experiment: Test C preemergence/postemergence greenhouse plant response rating 0 to 100; format: in vivo, Triticum aestivum; settings: POSTEMERGENCE; for Plant response rating, Wheat: 0 to 100 scale
How it was run: as §1

[7] = system: cotton; experiment: as above; format: in vivo, Gossypium hirsutum; settings: POSTEMERGENCE; for Plant response rating, Cotton: 0 to 100 scale
How it was run: as §1

[8] = system: pigweed; experiment: as above; format: in vivo, Amaranthusretroflexus; settings: POSTEMERGENCE; for Plant response rating Pigweed: 0 to 100 scale
How it was run: as §1

[9] = system: blackgrass; experiment: Test B preemergence/postemergence greenhouse plant response rating 0 to 10; format: in vivo, Alopecurus myosuroides; settings: 0 to 10 scale
How it was run: as §2

[10] = system: purple nutsedge; experiment: as above; format: in vivo, Cyperus rotundus; settings: 0 to 10 scale
How it was run: as §2

[11] = system: wild oat; experiment: as above; format: in vivo, Avena fatua; settings: 0 to 10 scale
How it was run: as §2

[12] = system: duck salad; experiment: Test C flood test plant response rating 0 to 100; format: in vivo, Heteranthera limosa; settings: for Plant response rating (0 to 100), Duck salad: under POSTEMERGENCE head (flood test species); for Plant response rating Duck salad: flood test species listed under POSTEMERGENCE, 0 to 100 scale
How it was run: as §1

[13] = system: barnyardgrass; experiment: Test C flood test plant response rating 0 to 100; format: in vivo, Echinochloa crus-galli; settings: for Plant response rating (0 to 100), Barnyardgrass: under POSTEMERGENCE head (flood test species); for Plant response rating, Barnyardgrass: flood test species listed under POSTEMERGENCE, 0 to 100 scale
How it was run: as §1

[14] = system: cotton; experiment: Test B preemergence/postemergence greenhouse plant response rating 0 to 10; format: in vivo, Gossypium hirsutum; settings: 0 to 10 scale
How it was run: as §2

[15] = system: lambsquarters; experiment: Test C preemergence/postemergence greenhouse plant response rating 0 to 100; format: in vivo, Chenopodium album; settings: POSTEMERGENCE; for Plant response rating Lambsquarters: 0 to 100 scale
How it was run: as §1

[16] = system: sugar beet; experiment: Test B preemergence/postemergence greenhouse plant response rating 0 to 10; format: in vivo, Beta vulgaris; settings: 0 to 10 scale
How it was run: as §2

[17] = system: corn; experiment: as above; format: in vivo, Zea mays; settings: 0 to 10 scale
How it was run: as §2

[18] = system: velvetleaf; experiment: Test C preemergence/postemergence greenhouse plant response rating 0 to 100; format: in vivo, Abutilon theophrasti; settings: POSTEMERGENCE; for Plant response rating, Velvetleaf: 0 to 100 scale
How it was run: as §1

## C=C(Cl)COc1cc(-c2nn3c(c2Cl)CCCC3)c(F)cc1Cl [Compound 40]
[1]; 62 g/ha
  Plant response rating, Wild buckwheat: 100
[1]; 125 g/ha
  Plant response rating, Wild buckwheat: 100
[1]; Rate 16 g/ha
  Plant response rating (0 to 100), Wild buckwheat: 50
[1]; Rate 31 g/ha
  Plant response rating (0 to 100), Wild buckwheat: 50
[2]; POSTEMERGENCE, Rate 50 g/ha
  Plant response rating, Wheat: 4
[2]; PREEMERGENCE, Rate 50 g/ha
  Plant response rating, Wheat: 0
[2]; Rate 200 g/ha, POSTEMERGENCE
  Plant response rating, Wheat: 6
[2]; Rate 200 g/ha, PREEMERGENCE
  Plant response rating, Wheat: 2
[3]; POSTEMERGENCE, Rate 50 g/ha
  Plant response rating, Rice: 5
[3]; PREEMERGENCE, Rate 50 g/ha
  Plant response rating, Rice: 0
[3]; Rate 200 g/ha, POSTEMERGENCE
  Plant response rating, Rice: 5
[3]; Rate 200 g/ha, PREEMERGENCE
  Plant response rating, Rice: 0
[4]; POSTEMERGENCE, Rate 50 g/ha
  Plant response rating, Crabgrass: 4
[4]; POSTEMERGENCE, Rate 200 g/ha
  Plant response rating, Crabgrass: 5
[4]; PREEMERGENCE, Rate 50 g/ha
  Plant response rating, Crabgrass: 0
[4]; Rate 200 g/ha, PREEMERGENCE
  Plant response rating, Crabgrass: 8
[5]; POSTEMERGENCE, Rate 50 g/ha
  Plant response rating, Sorghum: 4
[5]; PREEMERGENCE, Rate 50 g/ha
  Plant response rating, Sorghum: 0
[5]; Rate 200 g/ha, POSTEMERGENCE
  Plant response rating, Sorghum: 5
[5]; Rate 200 g/ha, PREEMERGENCE
  Plant response rating, Sorghum: 1
[6]; 62 g/ha
  Plant response rating, Wheat: 40
[6]; 125 g/ha
  Plant response rating, Wheat: 50
[6]; Rate 16 g/ha
  Plant response rating (0 to 100), Wheat: 20
[6]; Rate 31 g/ha
  Plant response rating (0 to 100), Wheat: 30
[7]; 62 g/ha
  Plant response rating, Cotton: 100
[7]; 125 g/ha
  Plant response rating, Cotton: 100
[7]; Rate 16 g/ha
  Plant response rating (0 to 100), Cotton: 100
[7]; Rate 31 g/ha
  Plant response rating (0 to 100), Cotton: 100
[8]; 62 g/ha
  Plant response rating Pigweed: 100
[8]; 125 g/ha
  Plant response rating Pigweed: 100
[8]; Rate 16 g/ha
  Plant response rating (0 to 100), Pigweed: 90
[8]; Rate 31 g/ha
  Plant response rating (0 to 100), Pigweed: 95
[9]; POSTEMERGENCE, Rate 50 g/ha
  Plant response rating, Blackgrass: 2
[9]; POSTEMERGENCE, Rate 200 g/ha
  Plant response rating, Blackgrass: 3
[9]; Rate 200 g/ha, PREEMERGENCE
  Plant response rating, Blackgrass: 2
[10]; POSTEMERGENCE, Rate 50 g/ha
  Plant response rating, Nutsedge: 2
[10]; PREEMERGENCE, Rate 50 g/ha
  Plant response rating, Nutsedge: 0
[10]; Rate 200 g/ha, POSTEMERGENCE
  Plant response rating, Nutsedge: 4
[10]; Rate 200 g/ha, PREEMERGENCE
  Plant response rating, Nutsedge: 0
[11]; POSTEMERGENCE, Rate 50 g/ha
  Plant response rating, Wild oat: 4
[11]; PREEMERGENCE, Rate 50 g/ha
  Plant response rating, Wild oat: 0
[11]; Rate 200 g/ha, POSTEMERGENCE
  Plant response rating, Wild oat: 5
[12]; Rate 16 g/ha
  Plant response rating (0 to 100), Duck salad: 0
[12]; Rate 31 g/ha
  Plant response rating (0 to 100), Duck salad: 65
[12]; 62 g/ha
  Plant response rating Duck salad: 80
[12]; 125 g/ha
  Plant response rating Duck salad: 85
[13]; Rate 16 g/ha
  Plant response rating (0 to 100), Barnyardgrass: 100
[13]; Rate 31 g/ha
  Plant response rating (0 to 100), Barnyardgrass: 100
[13]; 62 g/ha
  Plant response rating, Barnyardgrass: 100
[13]; 125 g/ha
  Plant response rating, Barnyardgrass: 100
[14]; POSTEMERGENCE, Rate 50 g/ha
  Plant response rating, Cotton: 10
[14]; POSTEMERGENCE, Rate 200 g/ha
  Plant response rating, Cotton: 10
[14]; PREEMERGENCE, Rate 50 g/ha
  Plant response rating, Cotton: 1
[14]; Rate 200 g/ha, PREEMERGENCE
  Plant response rating, Cotton: 7
[15]; 62 g/ha
  Plant response rating Lambsquarters: 80
[15]; 125 g/ha
  Plant response rating Lambsquarters: 100
[15]; Rate 16 g/ha
  Plant response rating (0 to 100), Lambsquarters: 70
[15]; Rate 31 g/ha
  Plant response rating (0 to 100), Lambsquarters: 70
[16]; POSTEMERGENCE, Rate 50 g/ha
  Plant response rating, Sugar beet: 10
[16]; PREEMERGENCE, Rate 50 g/ha
  Plant response rating, Sugar beet: 9
[16]; Rate 200 g/ha, POSTEMERGENCE
  Plant response rating, Sugar beet: 10
[16]; Rate 200 g/ha, PREEMERGENCE
  Plant response rating, Sugar beet: 9
[17]; POSTEMERGENCE, Rate 50 g/ha
  Plant response rating, Corn: 4
[17]; POSTEMERGENCE, Rate 200 g/ha
  Plant response rating, Corn: 5
[17]; PREEMERGENCE, Rate 50 g/ha
  Plant response rating, Corn: 0
[17]; Rate 200 g/ha, PREEMERGENCE
  Plant response rating, Corn: 1
[18]; 62 g/ha
  Plant response rating, Velvetleaf: 100
[18]; 125 g/ha
  Plant response rating, Velvetleaf: 100
[18]; Rate 16 g/ha
  Plant response rating (0 to 100), Velvetleaf: 90
[18]; Rate 31 g/ha
  Plant response rating (0 to 100), Velvetleaf: 90
